Consider 21 compounds from patent US12043632B2, “6-heteroaryloxy benzimidazoles and azabenzimidazoles as JAK2 inhibitors” (Ajax Therapeutics, Inc., priority 2020, dated 2024).

The experiment deals with T1, JAK2 (JH1domain-catalytic, Y1007F,Y1008F) kinase (Homo sapiens, UniProt O60674, Y1007F/Y1008F).
T1 construct: JAK2 (JH1domain-catalytic, Y1007F,Y1008F) kinase was expressed as N-terminal fusion; made in house; host or cells: transiently transfected HEK293 cells
Put plainly: JAK2 JH1 Domain Binding Assay. The settings on record: qPCR readout.

Molecules are shown by their SMILES. pKd: −log10 of the molar value.

T1 sequence (O60674 849-1124 Y1007F/Y1008F limits assumed): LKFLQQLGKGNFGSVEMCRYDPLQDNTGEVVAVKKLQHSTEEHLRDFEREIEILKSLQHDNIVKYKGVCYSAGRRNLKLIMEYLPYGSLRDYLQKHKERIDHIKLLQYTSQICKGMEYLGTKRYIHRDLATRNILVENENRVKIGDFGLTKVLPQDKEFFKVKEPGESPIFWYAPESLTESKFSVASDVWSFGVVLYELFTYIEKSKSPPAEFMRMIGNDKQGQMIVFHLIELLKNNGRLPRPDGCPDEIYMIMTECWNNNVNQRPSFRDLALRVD

Take `COc1c(Oc2cnc3sccc3c2)cnc2nc(Nc3cc(C(C)(C)C)n([C@@H]4CCN(C)C4)n3)n(C)c12` [Example I-46, (R)—N-(5-(tert-butyl)-1-(1-methylpyrrolidin-3-yl)-1H-pyrazol-3-yl)-7-methoxy-1-methyl-6-(thieno[2,3-b]pyridin-5-yloxy)-1H-imidazo[4,5-b]pyridin-2-amine]: the pKd is 6.00 to 7.30. The result for `Cn1c(Nc2cc(C(C)(C)C)n([C@H]3COC[C@@H]3O)n2)nc2ncc(Oc3cnn4ccncc34)c(C#N)c21` (single isomer, unassigned) [Example I-150-a] reads 7.30 to 8.00; that for `Cn1c(Nc2cc(C3CC3)cn([C@H]3CCCOC3)c2=O)nc2ncc(Oc3cnn4ccncc34)c(Cl)c21` (single isomer, unassigned) [Example I-73-a], over 8.00. With `COc1ccc2c(Oc3cnc4nc(Nc5cc(C(F)(F)F)cn(C)c5=O)n(C)c4c3C#N)cnn2c1` [Example I-291, 6-((6-methoxypyrazolo[1,5-a]pyridin-3-yl)oxy)-1-methyl-2-((1-methyl-2-oxo-5-(trifluoromethyl)-1,2-dihydropyridin-3-yl)amino)-1H-imidazo[4,5-b]pyridine-7-carbonitrile] the figure was over 8.00; with `Cn1c(Nc2cc(CN3CC[C@@H](O)C3)cc(C(F)(F)F)c2)nc2ncc(Oc3cnn4ccncc34)c(Cl)c21` [Example I-204, (R)-1-(3-((7-chloro-1-methyl-6-(pyrazolo[1,5-a]pyrazin-3-yloxy)-1H-imidazo[4,5-b]pyridin-2-yl)amino)-5-(trifluoromethyl)benzyl)pyrrolidin-3-ol], over 8.00; with `CNc1cn2ncc(Oc3cnc4nc(Nc5cc(CN(C)C)cc(C(F)(F)F)c5)n(C)c4c3Cl)c2cn1` [Example I-327, 7-chloro-N-(3-((dimethylamino)methyl)-5-(trifluoromethyl)phenyl)-1-methyl-6-((6-(methylamino)pyrazolo[1,5-a]pyrazin-3-yl)oxy)-1H-imidazo[4,5-b]pyridin-2-amine], 7.30 to 8.00.

The compound `Cn1c(Nc2cc(C3CC3)cn(-c3cccnc3)c2=O)nc2ncc(Oc3cnn4ccncc34)c(Cl)c21` [Example I-108, 3-((7-chloro-1-methyl-6-(pyrazolo[1,5-a]pyrazin-3-yloxy)-1H-imidazo[4,5-b]pyridin-2-yl)amino)-5-cyclopropyl-2H-[1,3′-bipyridin]-2-one] showed a pKd of over 8.00.

As for `Cn1cc(C(F)(F)F)cc(Nc2nc3ncc(Oc4cnn5ccn(C)c(=O)c45)c(Cl)c3n2C)c1=O` [Example I-323, 3-((7-chloro-1-methyl-2-((1-methyl-2-oxo-5-(trifluoromethyl)-1,2-dihydropyridin-3-yl)amino)-1H-imidazo[4,5-b]pyridin-6-yl)oxy)-5-methylpyrazolo[1,5-a]pyrazin-4(5H)-one], the negative logarithm of the Kd (pKd) is 7.30 to 8.00. The compound `CNc1nccn2ncc(Oc3cnc4nc(Nc5cc(CN6CC[C@H](OC)C6)cc(C(F)(F)F)c5)n(C)c4c3Cl)c12` [Example I-249, (S)-7-chloro-N-(3-((3-methoxypyrrolidin-1-yl)methyl)-5-(trifluoromethyl)phenyl)-1-methyl-6-((4-(methylamino)pyrazolo[1,5-a]pyrazin-3-yl)oxy)-1H-imidazo[4,5-b]pyridin-2-amine] showed a pKd of 7.30 to 8.00. The result for `COc1c(Oc2cnn3ccccc23)cnc2nc(Nc3cc(C4CC4)cn([C@H]4C[C@H](O)C4)c3=O)n(C)c12` [Example I-111, trans-5-cyclopropyl-1-(3-hydroxycyclobutyl)-3-((7-methoxy-1-methyl-6-(pyrazolo[1,5-a]pyridin-3-yloxy)-1H-imidazo[4,5-b]pyridin-2-yl)amino)pyridin-2(1H)-one] reads over 8.00; that for `Cn1c(Nc2cc(C(C)(C)C)n([C@H]3CCOC3)n2)nc2ncc(Oc3cnn4ccncc34)c(C#N)c21` [Example I-137, (S)-2-((5-(tert-butyl)-1-(tetrahydrofuran-3-yl)-1H-pyrazol-3-yl)amino)-1-methyl-6-(pyrazolo[1,5-a]pyrazin-3-yloxy)-1H-imidazo[4,5-b]pyridine-7-carbonitrile], 7.30 to 8.00; that for `Cn1cc(C(F)(F)F)cc(Nc2nc3ncc(Oc4cnn5cc(OCCO)ncc45)c(Cl)c3n2C)c1=O` [Example I-397, 3-((7-chloro-6-((6-(2-hydroxyethoxy)pyrazolo[1,5-a]pyrazin-3-yl)oxy)-1-methyl-1H-imidazo[4,5-b]pyridin-2-yl)amino)-1-methyl-5-(trifluoromethyl)pyridin-2(1H)-one], over 8.00. The result for `Cn1c(Nc2cc(C(C)(C)C)n([C@H]3CC[C@H]3O)n2)nc2ncc(Oc3cnn4ccncc34)c(Cl)c21` (single isomer, unassigned) [Example I-147-a] reads over 8.00. With `COc1c(Oc2cnn3ccccc23)cnc2nc(Nc3cc(C4CC4)cn([C@@H]4CC[C@H]4O)c3=O)n(C)c12` (single isomer, unassigned) [Example I-122-a] the figure was over 8.00; with `CN1CCC[C@H]1c1cc(Nc2nc3ncc(Oc4cnn5ccncc45)c(Cl)c3n2C)cc(C(F)(F)F)c1` (single isomer, unassigned) [Example I-270-b], over 8.00. Take `CNc1cn2ncc(Oc3cnc4nc(Nc5ccc(CN6CC[C@H](OC)C6)c(C(F)(F)F)c5)n(C)c4c3Cl)c2cn1` [Example I-360, (S)-7-chloro-N-(4-((3-methoxypyrrolidin-1-yl)methyl)-3-(trifluoromethyl)phenyl)-1-methyl-6-((6-(methylamino)pyrazolo[1,5-a]pyrazin-3-yl)oxy)-1H-imidazo[4,5-b]pyridin-2-amine]: the negative logarithm of the Kd (pKd) was 6.00 to 7.30. With `COc1c(Oc2cnn3ccccc23)cnc2nc(Nc3cc(C4CC4)cn([C@H]4CC[C@@H]4O)c3=O)n(C)c12` (single isomer, unassigned) [Example I-122-b] the figure was over 8.00; with `Cn1c(Nc2cc(N3CCC(O)C3)cc(C(F)(F)F)c2)nc2ncc(Oc3cnn4ccncc34)c(Cl)c21` (stereo in doubt) [Example I-239, (S)-1-(3-((7-chloro-1-methyl-6-(pyrazolo[1,5-a]pyrazin-3-yloxy)-1H-imidazo[4,5-b]pyridin-2-yl)amino)-5-(trifluoromethyl)phenyl)pyrrolidin-3-ol], over 8.00; with `COc1n[nH]c2ncc(Oc3cnc4nc(Nc5cc(C(F)(F)F)cn(C)c5=O)n(C)c4c3C#N)cc12` [Example I-299, 6-((3-methoxy-1H-pyrazolo[3,4-b]pyridin-5-yl)oxy)-1-methyl-2-((1-methyl-2-oxo-5-(trifluoromethyl)-1,2-dihydropyridin-3-yl)amino)-1H-imidazo[4,5-b]pyridine-7-carbonitrile], over 8.00.

For the compound `CNc1nccn2ncc(Oc3cnc4nc(Nc5cc(C6CC6)cn(C)c5=O)n(C)c4c3Cl)c12` [Example I-134, 3-((7-chloro-1-methyl-6-((4-(methylamino)pyrazolo[1,5-a]pyrazin-3-yl)oxy)-1H-imidazo[4,5-b]pyridin-2-yl)amino)-5-cyclopropyl-1-methylpyridin-2(1H)-one], the pKd is over 8.00. With `COc1c(Oc2cnn3ccncc23)cnc2nc(Nc3cc(C4CC4)cn(C4CCOCC4)c3=O)n(C)c12` [Example I-67, 5-cyclopropyl-3-((7-methoxy-1-methyl-6-(pyrazolo[1,5-a]pyrazin-3-yloxy)-1H-imidazo[4,5-b]pyridin-2-yl)amino)-1-(tetrahydro-2H-pyran-4-yl)pyridin-2(1H)-one] the figure was over 8.00.
